The text below walks through data of ChEMBL document CHEMBL1125293 (J Med Chem, 1992).

SMILES strings stand for the structures.

For orientation: IC50 means the concentration needed to halve the response being measured. A low value points to greater potency in that assay.

The target in assay [1] is T1, Substance-P receptor (Rattus norvegicus, UniProt P14600). It counts as cell membranes, Membrane.
Assay [2] has as its target T1, Substance-P receptor. Kind of assay: Inhibition of [125]I-Bolton Hunter Substance P([125]I-BHSP) binding to Tachykinin receptor 1 from rat forebrain membranes. It counts as cell membranes, Membrane.

T1 sequence (P14600 whole entry): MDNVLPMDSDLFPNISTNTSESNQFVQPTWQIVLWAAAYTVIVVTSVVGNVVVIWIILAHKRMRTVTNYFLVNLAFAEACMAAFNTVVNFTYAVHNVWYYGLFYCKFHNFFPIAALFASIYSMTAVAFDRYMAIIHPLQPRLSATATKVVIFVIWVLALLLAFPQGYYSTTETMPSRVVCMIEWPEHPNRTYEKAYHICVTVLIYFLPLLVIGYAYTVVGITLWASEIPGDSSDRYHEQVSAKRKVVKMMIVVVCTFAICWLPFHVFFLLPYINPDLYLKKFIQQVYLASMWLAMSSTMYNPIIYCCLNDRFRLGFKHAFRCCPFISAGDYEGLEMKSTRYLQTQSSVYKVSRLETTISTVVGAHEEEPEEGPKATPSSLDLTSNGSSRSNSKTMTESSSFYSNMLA

In the case of `C#C[C@]1(O)CCC2C3CC[C@H]4Cc5nc6[nH]c7ccccc7c6cc5C[C@]4(C)C3CC[C@@]21C` (stereo not given in full), the IC50 against Substance-P receptor [1] is more than 10 µM.

In turn, `C[C@]12Cc3cn4c(nc3CC1CCC1C2CC[C@@]2(C)C1CC[C@]2(C)O)nc1ccccc14` (stereo not given in full) had an IC50 on Substance-P receptor [1] of 0.2 µM.

`C#C[C@]1(O)CCC2C3CC[C@H]4Cc5nc6cc7ccccc7n6cc5C[C@]4(C)C3CC[C@@]21C` (stereo not given in full) gave an IC50 at Substance-P receptor [1] of more than 10 µM.

In the case of `C[C@]12Cc3cn4c(nc3CC1CCC1C2CC[C@]2(C)C(=O)CCC12)nc1ccccc14` (stereo not given in full), the IC50 at Substance-P receptor [2] was more than 10 µM.

`CC#C[C@]1(O)CCC2C3CCC4Cc5nc6nc7ccccc7n6cc5C[C@]4(C)C3CC[C@@]21C` (stereo not given in full) yielded an IC50 at Substance-P receptor [2] of 0.18 µM.

`COC(=O)CCC(C)[C@H]1CCC2C3C(C[C@H](O)[C@@]21C)[C@@]1(C)Cc2cn4c(nc2CC1C[C@H]3O)nc1ccccc14` (stereo not given in full) had an IC50 at Substance-P receptor [1] of more than 2.5 µM.

Consider `Cc1cc(C)n2c(n1)nc1ccccc12`, for which the IC50 against Substance-P receptor [1] is more than 10 µM.

With `COC(=O)[C@H]1CCC2C3CCC4Cc5nc6nc7ccccc7n6cc5C[C@]4(C)C3CC[C@@]21C` (stereo not given in full), the IC50 at Substance-P receptor [2] is more than 10 µM.

`C=C[C@]1(O)CCC2C3CCC4Cc5nc6nc7ccccc7n6cc5C[C@]4(C)C3CC[C@@]21C` (stereo not given in full) yielded an IC50 against Substance-P receptor [1] of 0.086 µM.

`C[C@]12Cc3cn4c(nc3CC1CCC1C2CC[C@@]2(C)C1CC[C@@H]2O)nc1ccccc14` (stereo not given in full) registered an IC50 against Substance-P receptor [1] of 0.22 µM.

For the molecule `C[C@@]12CCCC1C1CCC3Cc4nc5nc6ccccc6n5cc4C[C@]3(C)C1CC2` (stereo not given in full), the IC50 against Substance-P receptor [1] was more than 10 µM.

Consider `C#C[C@]1(O)CCC2C3CC[C@H]4Cc5nc6nc7cc8ccccc8cc7n6cc5C[C@]4(C)C3CC[C@@]21C` (stereo not given in full), for which the IC50 at Substance-P receptor [1] was 0.32 µM.

In turn, `C#CC[C@]1(O)CCC2C3CCC4Cc5nc6nc7ccccc7n6cc5C[C@]4(C)C3CC[C@@]21C` (stereo not given in full) registered an IC50 at Substance-P receptor [2] of 0.32 µM.

`C[C@]12Cc3cn4c(nc3CC1CCC1C2CC[C@@]2(C)C1CC[C@@]2(O)c1ccccc1)nc1ccccc14` (stereo not given in full): on Substance-P receptor [2], the IC50 is more than 10 µM.

Regarding `C=CC1=CCCC2Cc3nc4nc5ccccc5n4cc3C[C@]12C` (stereo not given in full), the IC50 against Substance-P receptor [1] was more than 10 µM.

In turn, `C#C[C@]1(OC)CCC2C3CCC4Cc5nc6nc7ccccc7n6cc5C[C@]4(C)C3CC[C@@]21C` (stereo not given in full) came in with an IC50 against Substance-P receptor [1] of more than 10 µM.

In the case of `c1ccc2c(c1)nc1nc3c(cn12)CCCC3`, the 50% inhibitory concentration (IC50) on Substance-P receptor [2] is more than 10 µM.

Take `CC(C)CCCC(C)[C@@H]1CCC2C3CCC4Cc5nc6nc7ccccc7n6cc5C[C@]4(C)C3CC[C@@]21C` (stereo not given in full): at Substance-P receptor [2], the IC50 was more than 10 µM.

The molecule `CC(CCC(=O)O)[C@H]1CCC2C3C(C[C@H](O)[C@@]21C)[C@@]1(C)Cc2cn4c(nc2CC1C[C@H]3O)nc1ccccc14` (stereo not given in full) returned an IC50 at Substance-P receptor [1] of more than 10 µM.

On to `C[C@]12CCC3C(CC[C@@H]4Cc5nc6nc7ccccc7n6cc5C[C@]34C)C1CC[C@@H]2O` (stereo not given in full), for which the IC50 on Substance-P receptor [2] is more than 10 µM.
